Drawing on ChEMBL document CHEMBL4680133, “Novel nitroimidazole derivatives evaluated for their trypanocidal, cytotoxic, and genotoxic activities” (Eur J Med Chem, 2020), this text covers Activity_index for 1 molecule.

This data set concerns HepG2. In words: Genotoxicity in human HepG2 assessed as mitotic index at 1750 uM measured after 24 hrs by micronucleus test (reference value: 61 to 108). The class given is toxicity, cell-based. To be noted: hepg2, 24 h.

SMILES strings stand for the structures.

Take `CCCCCc1ccc(-c2cn(-c3c([N+](=O)[O-])ncn3C)nn2)cc1`: the Activity_index was determined as 59.
